Test results as given in ChEMBL document CHEMBL1136524, “Substituted 2-pyridinemethanol derivatives as potent and selective phosphodiesterase-4 inhibitors” (Bioorg Med Chem Lett, 2003).

What was measured:
Homo sapiens = species: Homo sapiens; test: Ability to inhibit LPS-induced TNF-alpha formation in human whole blood (HWB); assay type: functional, organism-based
[1] = target: T1, 3',5'-cyclic-AMP phosphodiesterase 4A (Homo sapiens, UniProt P27815); test: In vitro inhibitory activity against Phosphodiesterase 4A (PDE4)
T1 sequence (P27815 whole entry): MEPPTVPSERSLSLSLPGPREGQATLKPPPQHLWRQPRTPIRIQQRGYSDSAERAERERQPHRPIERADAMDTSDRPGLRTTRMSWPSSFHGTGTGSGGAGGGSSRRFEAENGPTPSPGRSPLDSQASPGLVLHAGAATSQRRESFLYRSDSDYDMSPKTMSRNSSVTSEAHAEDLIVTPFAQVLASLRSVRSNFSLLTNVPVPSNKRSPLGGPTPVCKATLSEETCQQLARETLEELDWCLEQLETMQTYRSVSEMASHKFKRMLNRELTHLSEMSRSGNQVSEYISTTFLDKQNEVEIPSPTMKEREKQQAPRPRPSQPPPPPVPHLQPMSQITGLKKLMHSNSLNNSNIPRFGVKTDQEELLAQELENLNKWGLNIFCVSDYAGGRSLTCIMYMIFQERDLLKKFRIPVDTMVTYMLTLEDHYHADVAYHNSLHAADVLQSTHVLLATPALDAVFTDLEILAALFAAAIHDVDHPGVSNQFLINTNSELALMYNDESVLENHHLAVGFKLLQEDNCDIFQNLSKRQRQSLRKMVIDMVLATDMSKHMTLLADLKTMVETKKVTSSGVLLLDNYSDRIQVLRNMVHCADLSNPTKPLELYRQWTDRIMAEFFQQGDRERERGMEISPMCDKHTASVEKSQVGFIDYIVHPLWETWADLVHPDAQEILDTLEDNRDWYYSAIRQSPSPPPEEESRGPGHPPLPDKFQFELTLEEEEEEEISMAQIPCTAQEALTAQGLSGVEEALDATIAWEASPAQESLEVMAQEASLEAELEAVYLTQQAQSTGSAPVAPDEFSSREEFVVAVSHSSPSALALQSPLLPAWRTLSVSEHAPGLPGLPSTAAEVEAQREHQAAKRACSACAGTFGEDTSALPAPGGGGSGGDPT

[2] = target: T1, 3',5'-cyclic-AMP phosphodiesterase 4A; test: Inhibition of Phosphodiesterase-4A (PDE4)
[3] = Half life period was determined in squirrel monkey after iv administration at a dose of 5 mg/kg; assay type: ADME, organism-based; parameters: dose 5 mg/kg, route intravenous; settings: in vivo
[4] = Oral bioavailability in squirrel monkey at a dose of 10 mg/kg; assay type: ADME, organism-based, Saimiri sciureus; settings: in vivo
[5] = Maximal plasma concentration in squirrel monkeys; assay type: ADME, organism-based
[6] = Oral bioavailability in rat; assay type: ADME, organism-based; settings: in vivo
[7] = Half life period was determined in rat after iv administration at a dose of 5 mg/kg; assay type: ADME, organism-based; parameters: dose 5 mg/kg, route intravenous; settings: in vivo
Cavia porcellus = test: Inhibition of ovalbumin induced bronchoconstriction in conscious guinea pig after ip administration at 0.3 mg/kg (0.5 hr pre-treatment); assay type: functional; settings: route intraperitoneal
Ovis aries [8] = test: Inhibition of ascaris-induced bronchoconstriction in conscious sheep at 0.5 mg/kg iv dose late phase; assay type: functional
Ovis aries [9] = test: Inhibition of ascaris-induced bronchoconstriction in conscious sheep at 0.5 mg/kg iv dose at early phase; assay type: functional

Row | IC50 [1] | IC50 (Homo sapiens; Homo sapiens, Blood) | Compound | other results
1 | 48 nM | – | CC(O)(c1ccccc1)c1ccc(C(Cc2cc[n+]([O-])cc2)c2ccc(OC(F)F)c(OC(F)F)c2)cn1 (mixture of isomers) | IC50 (Homo sapiens): 3500 nM
2 | 1.2 nM | 300 nM | CC(O)(c1ccc(C(Cc2cc[n+]([O-])cc2)c2ccc(OC(F)F)c(OC(F)F)c2)cn1)C1CCCCC1 (configuration not stated) | –
3 | 0.8 nM | 370 nM | CC(C)C(O)(c1ccccc1)c1ccc(C(Cc2cc[n+]([O-])cc2)c2ccc(OC(F)F)c(OC(F)F)c2)cn1 (configuration not stated) | –
4 | – | 16000 nM | COc1ccc([C@H](Cc2ccncc2)c2ccccc2)cc1OC1CCCC1 [CDP840] | –
5 | – | 360 nM | [O-][n+]1ccc(CC(c2ccc(C(O)c3ccccc3)nc2)c2ccc(OC(F)F)c(OC(F)F)c2)cc1 (configuration not stated) | IC50 [2]: 6 nM
6 | 0.8 nM | 550 nM | [O-][n+]1ccc(CC(c2ccc(C(O)(c3ccccc3)c3ccccc3)nc2)c2ccc(OC(F)F)c(OC(F)F)c2)cc1 (configuration not stated) | –
7 | 40 nM | 890 nM | CC(C)(O)c1ccc(C(Cc2cc[n+]([O-])cc2)c2ccc(OC(F)F)c(OC(F)F)c2)cn1 (configuration not stated) | –
8 | 3 nM | 770 nM | [O-][n+]1ccc(CC(c2ccc(Cc3ccccc3)nc2)c2ccc(OC(F)F)c(OC(F)F)c2)cc1 (configuration not stated) | –
9 | 102 nM | 2200 nM | CC(=O)c1ccc(C(Cc2cc[n+]([O-])cc2)c2ccc(OC(F)F)c(OC(F)F)c2)cn1 (configuration not stated) | –
10 | 6 nM | 340 nM | CCCCC(C)(O)c1ccc(C(Cc2cc[n+]([O-])cc2)c2ccc(OC(F)F)c(OC(F)F)c2)cn1 (configuration not stated) | –
11 | 0.6 nM | – | CC(O)(c1ccccc1)c1ccc(C(Cc2cc[n+]([O-])cc2)c2ccc(OC(F)F)c(OC(F)F)c2)cn1 (racemic) | IC50 (Homo sapiens): 350 nM
12 | – | 600 nM | O=C(c1ccccc1)c1ccc(C(Cc2cc[n+]([O-])cc2)c2ccc(OC(F)F)c(OC(F)F)c2)cn1 (configuration not stated) | IC50 [2]: 23 nM
13 | 2 nM | – | CC(O)(c1ccccc1)c1ccc(C(Cc2cc[n+]([O-])cc2)c2ccc(OC(F)F)c(OC(F)F)c2)cn1 (single isomer, unassigned; diastereomer 1) | half-life [3]: 2.2 h; bioavailability [4]: 73%; Cmax [5]: 2200 nM; bioavailability [6]: 57%; half-life [7]: 1.5 h; Inhibition (Cavia porcellus): 62%; IC50 (Homo sapiens): 160 nM; inhibition in vivo at 0.5 mg/kg (Ovis aries [8]): 91%; inhibition in vivo at 0.5 mg/kg (Ovis aries [9]): 33%
14 | – | 160 nM | CCC(O)(c1ccccc1)c1ccc(C(Cc2cc[n+]([O-])cc2)c2ccc(OC(F)F)c(OC(F)F)c2)cn1 (configuration not stated) | IC50 [2]: 1 nM
15 | 6 nM | 490 nM | CC(O)(c1ccc(C(Cc2cc[n+]([O-])cc2)c2ccc(OC(F)F)c(OC(F)F)c2)cn1)c1nccs1 (configuration not stated) | –
16 | 2.4 nM | 460 nM | [O-][n+]1ccc(CC(c2ccc(C(O)(c3ccccc3)C(F)(F)F)nc2)c2ccc(OC(F)F)c(OC(F)F)c2)cc1 (configuration not stated) | –
17 | 1 nM | – | CC(O)(c1ccccc1)c1ccc(C(Cc2cc[n+]([O-])cc2)c2ccc(OC(F)F)c(OC(F)F)c2)cn1 (single isomer, unassigned; diastereomer 2) | Inhibition (Cavia porcellus): 34%; IC50 (Homo sapiens): 110 nM
